Assay results taken from ChEMBL document CHEMBL4507263, “Data for DCP probe BAY-474” (2021).

Tests used:
[1] = target: Myotonin-protein kinase (Homo sapiens) (UniProt Q09013); assay: DMPK (h) Millipore kinase activity assay; details: Compound concentration 1.0 uM
[2] = target: Ephrin type-A receptor 4 (Homo sapiens) (UniProt P54764); assay: EphA4 (h) Millipore kinase activity assay; details: Compound concentration 1.0 uM
[3] = target: Fibroblast growth factor receptor 1 (Homo sapiens) (UniProt P11362); assay: FGFR1 (h) Millipore kinase activity assay; details: Compound concentration 1.0 uM
[4] = target: Vascular endothelial growth factor receptor 1 (Homo sapiens) (UniProt P17948); assay: Flt1 (h) Millipore kinase activity assay; details: Compound concentration 1.0 uM
[5] = target: Serine/threonine-protein kinase haspin (Homo sapiens) (UniProt Q8TF76); assay: Haspin (h) Millipore kinase activity assay; details: Compound concentration 1.0 uM
Chain of Serine/threonine-protein kinase haspin (Homo sapiens) (Q8TF76 whole entry): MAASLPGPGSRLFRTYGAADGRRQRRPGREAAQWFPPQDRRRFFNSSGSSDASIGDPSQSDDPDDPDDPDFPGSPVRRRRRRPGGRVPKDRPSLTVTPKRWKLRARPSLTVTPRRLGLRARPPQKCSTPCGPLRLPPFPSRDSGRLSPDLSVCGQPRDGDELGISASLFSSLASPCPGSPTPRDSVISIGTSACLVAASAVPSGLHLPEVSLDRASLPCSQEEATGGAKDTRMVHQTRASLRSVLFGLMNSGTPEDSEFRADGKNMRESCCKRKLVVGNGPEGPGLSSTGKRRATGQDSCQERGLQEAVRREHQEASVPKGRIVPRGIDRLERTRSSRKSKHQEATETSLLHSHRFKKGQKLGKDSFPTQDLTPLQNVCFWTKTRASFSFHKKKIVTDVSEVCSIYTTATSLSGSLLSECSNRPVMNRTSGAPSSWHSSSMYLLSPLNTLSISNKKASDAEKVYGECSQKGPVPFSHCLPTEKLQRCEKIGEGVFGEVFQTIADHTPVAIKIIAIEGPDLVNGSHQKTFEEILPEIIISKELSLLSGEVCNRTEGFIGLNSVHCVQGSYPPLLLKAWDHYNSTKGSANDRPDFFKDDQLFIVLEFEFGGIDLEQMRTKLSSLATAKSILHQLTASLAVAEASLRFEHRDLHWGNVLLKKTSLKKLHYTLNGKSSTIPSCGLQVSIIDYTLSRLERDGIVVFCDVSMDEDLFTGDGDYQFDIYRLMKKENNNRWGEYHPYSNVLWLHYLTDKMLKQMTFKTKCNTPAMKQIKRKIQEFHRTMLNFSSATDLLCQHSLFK

[6] = target: Homeodomain-interacting protein kinase 3 (Homo sapiens) (UniProt Q9H422); assay: HIPK3 (h) Millipore kinase activity assay; details: Compound concentration 1.0 uM
[7] = target: Insulin receptor (Homo sapiens) (UniProt P06213); assay: IR (h) Millipore kinase activity assay; details: Compound concentration 1.0 uM
[8] = target: Myosin light chain kinase (Homo sapiens) (UniProt Q32MK0); assay: MLCK (h) Millipore kinase activity assay; details: Compound concentration 1.0 uM
Chain of Myosin light chain kinase (Homo sapiens) (Q32MK0 whole entry, the tested form may be a part): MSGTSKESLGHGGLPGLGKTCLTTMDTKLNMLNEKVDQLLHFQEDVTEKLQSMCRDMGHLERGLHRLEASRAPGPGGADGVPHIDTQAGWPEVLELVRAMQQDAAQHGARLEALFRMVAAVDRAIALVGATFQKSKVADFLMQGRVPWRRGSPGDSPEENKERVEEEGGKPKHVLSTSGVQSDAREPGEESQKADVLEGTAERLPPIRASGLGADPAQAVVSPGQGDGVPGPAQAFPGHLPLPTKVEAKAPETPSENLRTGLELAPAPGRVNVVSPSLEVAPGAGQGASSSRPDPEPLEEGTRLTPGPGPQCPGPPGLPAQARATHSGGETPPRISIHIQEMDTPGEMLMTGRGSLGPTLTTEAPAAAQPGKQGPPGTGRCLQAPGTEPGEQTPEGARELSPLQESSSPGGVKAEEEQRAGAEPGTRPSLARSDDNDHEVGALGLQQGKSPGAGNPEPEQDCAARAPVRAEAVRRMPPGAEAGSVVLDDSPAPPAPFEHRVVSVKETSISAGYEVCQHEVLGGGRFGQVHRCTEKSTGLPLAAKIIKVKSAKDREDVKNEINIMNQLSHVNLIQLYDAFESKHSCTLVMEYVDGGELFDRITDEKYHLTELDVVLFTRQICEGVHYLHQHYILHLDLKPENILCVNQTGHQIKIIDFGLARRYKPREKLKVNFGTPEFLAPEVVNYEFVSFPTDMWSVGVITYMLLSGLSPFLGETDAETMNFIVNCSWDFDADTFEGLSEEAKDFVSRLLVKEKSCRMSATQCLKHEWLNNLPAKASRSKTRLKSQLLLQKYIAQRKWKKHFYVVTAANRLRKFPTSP

[9] = target: PAS domain-containing serine/threonine-protein kinase (Homo sapiens) (UniProt Q96RG2); assay: PASK (h) Millipore kinase activity assay; details: Compound concentration 1.0 uM
Chain of PAS domain-containing serine/threonine-protein kinase (Homo sapiens) (Q96RG2 whole entry, the tested form may be a part): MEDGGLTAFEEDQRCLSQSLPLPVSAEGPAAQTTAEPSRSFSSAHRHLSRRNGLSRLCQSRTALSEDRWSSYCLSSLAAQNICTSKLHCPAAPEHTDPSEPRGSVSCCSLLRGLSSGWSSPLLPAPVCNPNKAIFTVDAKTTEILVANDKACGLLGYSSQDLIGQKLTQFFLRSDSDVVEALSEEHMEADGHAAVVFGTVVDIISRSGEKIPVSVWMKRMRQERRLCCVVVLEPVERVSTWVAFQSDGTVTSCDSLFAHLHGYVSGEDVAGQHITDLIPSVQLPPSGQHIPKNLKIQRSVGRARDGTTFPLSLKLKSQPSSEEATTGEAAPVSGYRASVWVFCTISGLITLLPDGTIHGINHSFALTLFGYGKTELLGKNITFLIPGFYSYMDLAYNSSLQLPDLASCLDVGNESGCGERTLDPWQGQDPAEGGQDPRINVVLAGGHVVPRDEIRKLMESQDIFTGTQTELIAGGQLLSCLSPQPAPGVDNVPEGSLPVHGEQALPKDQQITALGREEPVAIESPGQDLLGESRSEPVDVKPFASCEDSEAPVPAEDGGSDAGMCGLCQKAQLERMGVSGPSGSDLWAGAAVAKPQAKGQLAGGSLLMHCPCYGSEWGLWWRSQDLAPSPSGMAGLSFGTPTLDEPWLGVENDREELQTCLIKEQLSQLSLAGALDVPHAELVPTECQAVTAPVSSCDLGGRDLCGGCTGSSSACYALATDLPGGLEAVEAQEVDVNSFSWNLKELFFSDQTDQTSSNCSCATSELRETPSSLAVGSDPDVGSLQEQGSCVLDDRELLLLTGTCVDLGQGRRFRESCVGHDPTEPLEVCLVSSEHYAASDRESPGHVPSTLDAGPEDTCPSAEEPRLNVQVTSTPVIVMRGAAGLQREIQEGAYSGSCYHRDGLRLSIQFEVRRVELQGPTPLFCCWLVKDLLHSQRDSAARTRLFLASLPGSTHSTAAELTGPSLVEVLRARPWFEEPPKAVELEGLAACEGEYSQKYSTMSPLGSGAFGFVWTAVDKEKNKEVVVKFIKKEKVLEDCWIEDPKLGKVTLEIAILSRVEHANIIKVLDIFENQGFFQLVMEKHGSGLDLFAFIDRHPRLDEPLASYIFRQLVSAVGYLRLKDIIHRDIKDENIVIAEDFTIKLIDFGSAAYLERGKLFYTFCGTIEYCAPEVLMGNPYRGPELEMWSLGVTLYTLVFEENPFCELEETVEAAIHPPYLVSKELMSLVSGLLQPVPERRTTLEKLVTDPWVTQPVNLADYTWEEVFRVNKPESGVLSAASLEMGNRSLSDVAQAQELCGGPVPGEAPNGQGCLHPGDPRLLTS

[10] = target: T1, cGMP-dependent protein kinase 1 (Homo sapiens) (UniProt Q13976); assay: PKG1alpha (h) Millipore kinase activity assay; details: Compound concentration 1.0 uM
T1 sequence (whole entry): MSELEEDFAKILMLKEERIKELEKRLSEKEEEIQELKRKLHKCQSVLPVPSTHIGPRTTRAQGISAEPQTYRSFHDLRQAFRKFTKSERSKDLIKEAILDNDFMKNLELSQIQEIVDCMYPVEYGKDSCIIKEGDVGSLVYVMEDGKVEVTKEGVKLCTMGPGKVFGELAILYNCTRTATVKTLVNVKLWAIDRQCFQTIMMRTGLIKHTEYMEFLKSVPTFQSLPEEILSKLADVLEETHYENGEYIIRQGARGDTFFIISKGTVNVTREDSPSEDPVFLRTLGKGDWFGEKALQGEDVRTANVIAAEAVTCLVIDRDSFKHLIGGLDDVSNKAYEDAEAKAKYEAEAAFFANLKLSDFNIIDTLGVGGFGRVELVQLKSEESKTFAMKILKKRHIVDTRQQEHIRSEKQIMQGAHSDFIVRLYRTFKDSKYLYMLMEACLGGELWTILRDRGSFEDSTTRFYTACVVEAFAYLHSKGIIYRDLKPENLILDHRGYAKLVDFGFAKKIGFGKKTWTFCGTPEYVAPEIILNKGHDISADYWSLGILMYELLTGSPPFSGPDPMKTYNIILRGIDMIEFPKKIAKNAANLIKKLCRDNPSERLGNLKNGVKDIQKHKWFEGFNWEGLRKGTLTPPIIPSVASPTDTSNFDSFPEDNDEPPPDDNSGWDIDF

[11] = species on record: Oryctolagus cuniculus; assay: Inhibition of Purinergic P2X at 10 µM in the Eurofins-Panlabs radioligand binding assay (Eurofins_assay_268700); format: protein assay; details: Compound concentration 10.0 uM
[12] = target: D(3) dopamine receptor (Homo sapiens) (UniProt P35462); details: Compound concentration 10.0 uM
[13] = target: Alpha-1A adrenergic receptor (Homo sapiens) (UniProt P35348); details: Rattus norvegicus; Compound concentration 10.0 uM
[14] = target: Endothelin-1 receptor (Homo sapiens) (UniProt P25101); details: Compound concentration 10.0 uM
[15] = target: Sodium-dependent noradrenaline transporter (Homo sapiens) (UniProt P23975); details: Compound concentration 10.0 uM
[16] = target: Activin receptor type-1B (Homo sapiens) (UniProt P36896); details: Compound concentration 1000.0 nM
[17] = target: Calcium/calmodulin-dependent protein kinase type 1D (Homo sapiens) (UniProt Q8IU85); details: Compound concentration 1000.0 nM
[18] = target: Cyclin-dependent kinase-like 5 (Homo sapiens) (UniProt O76039); details: Compound concentration 1000.0 nM
[19] = target: Ephrin type-A receptor 5 (Homo sapiens) (UniProt P54756); details: Compound concentration 1000.0 nM
[20] = target: Ephrin type-A receptor 6 (Homo sapiens) (UniProt Q9UF33); details: Compound concentration 1000.0 nM
[21] = target: Ephrin type-B receptor 6 (Homo sapiens) (UniProt O15197); details: Compound concentration 1000.0 nM
[22] = target: Tyrosine-protein kinase Fgr (Homo sapiens) (UniProt P09769); details: Compound concentration 1000.0 nM
[23] = target: Glycogen synthase kinase-3 beta (Homo sapiens) (UniProt P49841); details: Compound concentration 1000.0 nM
[24] = target: Serine/threonine-protein kinase haspin (Homo sapiens) (UniProt Q8TF76); details: Compound concentration 1000.0 nM
[25] = target: Inhibitor of nuclear factor kappa-B kinase subunit beta (Homo sapiens) (UniProt O14920); details: Compound concentration 1000.0 nM
[26] = tested on: Mast/stem cell growth factor receptor Kit (Homo sapiens), P10721 [D816H]; details: Compound concentration 1000.0 nM
[27] = tested on: Mast/stem cell growth factor receptor Kit (Homo sapiens), P10721 [V559D,V654A]; details: Compound concentration 1000.0 nM
[28] = target: Tyrosine-protein kinase Lck (Homo sapiens) (UniProt P06239); details: Compound concentration 1000.0 nM
Chain of Tyrosine-protein kinase Lck (Homo sapiens) (P06239 2-509 limits assumed): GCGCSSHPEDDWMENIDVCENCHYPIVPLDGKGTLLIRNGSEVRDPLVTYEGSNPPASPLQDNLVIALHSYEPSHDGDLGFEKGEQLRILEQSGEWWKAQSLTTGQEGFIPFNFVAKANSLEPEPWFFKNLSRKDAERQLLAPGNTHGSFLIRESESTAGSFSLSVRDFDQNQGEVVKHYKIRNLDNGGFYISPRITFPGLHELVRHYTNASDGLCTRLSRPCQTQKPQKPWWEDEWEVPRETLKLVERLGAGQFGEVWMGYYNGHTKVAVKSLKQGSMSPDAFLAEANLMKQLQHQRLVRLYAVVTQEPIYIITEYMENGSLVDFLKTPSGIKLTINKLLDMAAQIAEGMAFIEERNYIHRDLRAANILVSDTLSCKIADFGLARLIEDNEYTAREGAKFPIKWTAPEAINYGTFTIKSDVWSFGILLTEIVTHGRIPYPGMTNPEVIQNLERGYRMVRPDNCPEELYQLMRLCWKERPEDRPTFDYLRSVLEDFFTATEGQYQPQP

[29] = target: Dual specificity mitogen-activated protein kinase kinase 5 (Homo sapiens) (UniProt Q13163); details: Compound concentration 1000.0 nM
[30] = target: Mitogen-activated protein kinase kinase kinase 11 (Homo sapiens) (UniProt Q16584); details: Compound concentration 1000.0 nM
Chain of Mitogen-activated protein kinase kinase kinase 11 (Homo sapiens) (Q16584 whole entry, looked up): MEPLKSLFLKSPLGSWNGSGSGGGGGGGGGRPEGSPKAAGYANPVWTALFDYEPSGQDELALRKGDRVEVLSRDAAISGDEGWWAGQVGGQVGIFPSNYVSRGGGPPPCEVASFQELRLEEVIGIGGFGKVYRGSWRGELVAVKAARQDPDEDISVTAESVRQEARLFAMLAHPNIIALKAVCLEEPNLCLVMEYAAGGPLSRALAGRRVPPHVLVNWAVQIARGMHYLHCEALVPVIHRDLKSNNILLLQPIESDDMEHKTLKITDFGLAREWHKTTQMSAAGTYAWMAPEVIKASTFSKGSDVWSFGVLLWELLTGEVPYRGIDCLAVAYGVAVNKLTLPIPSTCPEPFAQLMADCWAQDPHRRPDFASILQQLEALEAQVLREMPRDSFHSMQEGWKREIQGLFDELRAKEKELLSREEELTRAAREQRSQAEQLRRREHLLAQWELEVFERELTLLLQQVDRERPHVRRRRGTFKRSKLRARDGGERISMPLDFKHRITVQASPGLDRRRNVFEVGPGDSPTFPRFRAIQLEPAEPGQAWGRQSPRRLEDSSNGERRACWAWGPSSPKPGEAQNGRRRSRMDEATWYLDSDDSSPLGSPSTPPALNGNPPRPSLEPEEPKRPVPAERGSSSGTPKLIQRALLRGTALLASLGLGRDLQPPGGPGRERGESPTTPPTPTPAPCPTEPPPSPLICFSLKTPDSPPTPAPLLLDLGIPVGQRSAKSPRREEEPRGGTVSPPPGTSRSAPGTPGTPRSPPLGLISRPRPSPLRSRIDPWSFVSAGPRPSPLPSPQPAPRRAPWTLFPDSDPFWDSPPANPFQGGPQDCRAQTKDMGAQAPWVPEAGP

[31] = target: Myosin-IIIa (Homo sapiens) (UniProt Q8NEV4); details: Compound concentration 1000.0 nM
[32] = target: Myosin-IIIb (Homo sapiens) (UniProt Q8WXR4); details: Compound concentration 1000.0 nM
[33] = target: Serine/threonine-protein kinase NIM1 (Homo sapiens) (UniProt Q8IY84); details: Compound concentration 1000.0 nM
[34] = tested on: Phosphatidylinositol 4,5-bisphosphate 3-kinase catalytic subunit alpha isoform (Homo sapiens), P42336 [E545A]; details: Compound concentration 1000.0 nM
[35] = target: Serine/threonine-protein kinase PLK4 (Homo sapiens) (UniProt O00444); details: Compound concentration 1000.0 nM
[36] = target: Receptor-interacting serine/threonine-protein kinase 4 (Homo sapiens) (UniProt P57078); details: Compound concentration 1000.0 nM
[37] = target: Serine/threonine-protein kinase ULK1 (Homo sapiens) (UniProt O75385); details: Compound concentration 1000.0 nM

Chain of Myotonin-protein kinase (Homo sapiens) (Q09013 whole entry): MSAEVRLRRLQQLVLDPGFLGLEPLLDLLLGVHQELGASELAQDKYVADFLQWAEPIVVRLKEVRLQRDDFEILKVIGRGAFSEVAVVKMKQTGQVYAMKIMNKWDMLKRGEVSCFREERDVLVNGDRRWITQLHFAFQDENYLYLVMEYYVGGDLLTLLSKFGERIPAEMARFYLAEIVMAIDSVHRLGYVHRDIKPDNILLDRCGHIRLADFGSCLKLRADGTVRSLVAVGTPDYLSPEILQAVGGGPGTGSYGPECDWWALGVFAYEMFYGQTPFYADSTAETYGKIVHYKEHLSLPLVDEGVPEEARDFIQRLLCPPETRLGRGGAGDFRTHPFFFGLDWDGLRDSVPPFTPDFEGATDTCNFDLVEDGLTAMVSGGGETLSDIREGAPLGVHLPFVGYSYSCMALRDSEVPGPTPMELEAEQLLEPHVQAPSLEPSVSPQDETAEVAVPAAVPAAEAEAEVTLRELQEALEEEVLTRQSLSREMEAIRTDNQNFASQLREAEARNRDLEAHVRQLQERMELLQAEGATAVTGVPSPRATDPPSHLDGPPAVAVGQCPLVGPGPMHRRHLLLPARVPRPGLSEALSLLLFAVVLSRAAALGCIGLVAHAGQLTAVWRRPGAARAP

What does the source list for `CC1=C(C#N)C(c2ccc3[nH]nc(C)c3c2)C(C#N)=C(C)N1` [BAY-474]?
inhibition [1]: 3%; inhibition [2]: -5%; inhibition [3]: 23%; inhibition [4]: 69%; inhibition [5]: 2%; inhibition [6]: -4%; inhibition [7]: -9%; inhibition [8]: 9%; inhibition [9]: 19%; inhibition [10]: 7%; inhibition [11]: -1%; inhibition [12]: 18.1%; inhibition [13]: 1%; inhibition [14]: 7%; inhibition [15]: 6%

`CC1=C(C#N)[C@@H](c2ccc3[nH]nc(C)c3c2)C(C#N)=C(c2ccc(Cl)cc2)N1` [BAY-827] was tested. Which residual activity [16] did it give?
The residual activity was 100%.

And the residual activity [17]?
Its residual activity is 100%.

And the residual activity [18]?
The residual activity was 88.5%.

What about the residual activity [19] of the same compound?
The residual activity was 100%.

And the residual activity [20]?
Its residual activity is 100%.

And the residual activity [21]?
The residual activity was 100%.

And the residual activity [22]?
The residual activity was 100%.

And the residual activity [23]?
The residual activity was 69.6%.

And the residual activity [24]?
Its residual activity is 100%.

What about the residual activity [25] of the same compound?
The residual activity was 100%.

And the residual activity [26]?
Its residual activity is 84.3%.

What about the residual activity [27] of the same compound?
The residual activity was 100%.

What about the residual activity [28] of the same compound?
The residual activity was 100%.

What about the residual activity [29] of the same compound?
Its residual activity is 49.9%.

And the residual activity [30]?
Its residual activity is 100%.

And the residual activity [31]?
The residual activity was 100%.

And the residual activity [32]?
The residual activity was 78%.

What about the residual activity [33] of the same compound?
Its residual activity is 100%.

What about the residual activity [34] of the same compound?
Its residual activity is 75.4%.

And the residual activity [35]?
Its residual activity is 100%.

What about the residual activity [36] of the same compound?
Its residual activity is 71.8%.

What about the residual activity [37] of the same compound?
The residual activity was 100%.
